Results on 1 compound are retold here after patent publication US20250222109A1, “STRUCTURED LIPID COMPOSITIONS” (Universität Bern, priority 2022, published 2025).

Data set [1] relates to T cell transfer colitis. As to the kind of experiment: T-cell transfer colitis. In kind it is in vivo, mice. The source says:
To induce T cell mediated colitis, CD4+ T cells were isolated from the spleen of C57/BL6 mice (Strain #: 000664; RRID:IMSR_JAX: 000664 ex. Jackson laboratories) using the CD4 T cell isolation kit from Stemcell Technologies (#19852; Cologne, Germany) and subsequently naïve T helper cells (CD3+, CD4+, CD25low, […], CD44low cells) were sorted on a FACS Aria III (Becton Dickinson; Eysins, Switzerland) as described previously (D. V. Ostanin, et al., T cell transfer model of chronic colitis: Concepts, considerations, and tricks of the tradeAm. J. Physiol.—Gastrointest. Liver Physiol. 296, 135-146 (2009); M. R. Spalinger, et al., PTPN2 controls differentiation of CD4+ T cells and limits intestinal inflammation and intestinal dysbiosis, Mucosal Immunol. 8, 918-929 (2015); M. R. Spalinger, et al., Loss of PTPN22 Promotes Intestinal Inflammation by Compromising Granulocyte-mediated Antibacterial Defence, J. Crohn's Colitis 15, 2118-2130 (2021)). 12-15 week old male and female Rag^−/− mice in the C57/BL6 background (model RAGN12 (B6.129S6-Rag2^tm1Fwa N12) ex. Taconic) were injected intraperitoneally with 2.5×10^5 naïve T helper cells (all methods used were approved under licence no. ZH043/2021). Starting on day 2 post T cell injection, the mice received one daily rectal instillation (100 μL) of empty TIF-Gels, TAC-loaded TIF-Gels or TAC in vehicle solution (1% […] in distilled water). Weight development and disease activity scores were measured on a daily basis. On the last day of the experiment (day 18), the mice were anaesthetised using a mixture of ketamine 90-120 mg/kg bodyweight (Vétoquinol, Bern, Switzerland) and xylazine 8 mg/kg bodyweight (Bayer, Lyssach, Switzerland), and were subjected to mouse endoscopy to assess the extent of endoscopic colitis (M. R. Spalinger, et al., Protein tyrosine phosphatase non-receptor type 22 modulates colitis in a microbiota-dependent manner, J. Clin. Invest. 129, 2527-2541 (2019)) using the following parameters: 1) thickening of the colon wall, 2) vascularisation/bleeding, 3) extent of fibrin deposits, 4) granular appearance of the colon wall, 5) stool consistency. Each parameter was given a score from 0 (normal) to 3 (most severe appearance), resulting in a maximal total score of 15. After colonoscopy, the mice were sacrificed and colon tissue harvested for histology and isolation of lamina propria immune cells. Immune cells were isolated from the colon, mesenteric lymph nodes and the spleen, and analysed for immune cell subsets (M. R. Spalinger, et al., (2019) Loss of PTPN22 abrogates the beneficial effect of cohousing-mediated fecal microbiota transfer in murine colitis, Mucosal Immunol. 12, 1336-1347).
To assess the microscopic extent of colitis, formalin-fixed, paraffin embedded sections of the most distal 1.5 cm of the colon were subjected to hematoxilin and eosin (H&E) staining using standard protocols (M. R. Spalinger, et al. (2019)). The sections were analysed by two blinded scientists for the extent of epithelial damage (score 0-4) and infiltration of immune cells (score 0-4) resulting in a maximal possible score of 8. Images were taken using a Zeiss Axio Imager.Z2 microscope (Zeiss), equipped with an AxioCam HRc (Zeiss, Jena, Germany) camera and ZEN imaging software (Zeiss, Germany).
To analyse cytokine levels in the colons, colon pieces were lysed in PBS (1 ml PBS/[…] tissue) using a GentleMACS device from Miltenyi Biotec (Miltenyi Biotec, Bergisch Gladbach, Germany). Lysates were then analysed for cytokines using the Bio-Plex Pro Mouse Cytokine 23-plex Assay from Bio-Rad (Hercules, CA) according to the manufacturer's instructions.
TIF-Gel acts as a platform able to host and release molecules with different polarity. Thus, the hydrophobic TAC was loaded in to TIF-Gel and its ability to reduce colitis severity was assessed also using a model of T cell mediated colitis, namely T cell transfer colitis. […]

In data set [2] the test system is T cell transfer colitis. Nature of the data set: T-cell transfer colitis. It is filed as in vivo, mice. The following applies: colonoscopy, day 19 post T cell application.
The nature of data set [3]: Stability study of TAC and TOFA-loaded TIF-Gel (HPLC). In kind it is physicochemical. The following applies: 4° C. and 25° C., one-month period. How it is done: The TAC and TOFA-loaded TIF-Gels were prepared according to Example 1. […] The TAC-loaded TIF-Gel composition comprised a) a carrier comprising: a1) water in an amount of 16% by weight of the carrier; and a2) MLO in an amount of 84% by weight of the carrier; and b) TAC in an amount of 1% by weight of the composition. […] At specific time points, an aliquot of the formulation was analysed at the HPLC, and the content of the drug was recorded. Data are expressed as relative percentage referred to day 0.

The nature of data set [4]: Drug encapsulation and distribution in TIF-Gel (WAXS, HPLC of gel layers). It is filed as physicochemical. The protocol: The tube was centrifuged and kept at rest for 24 hours. Subsequently, the gel was divided into 3 different layers (Top, Middle, and Bottom), and the drug content evaluated in each by HPLC.
WAXS measurements were performed on a Bruker AXS Micro, with a microfocused X-ray source, operating at voltage and filament current of 50 kV and 1000 μA, respectively. The Cu Kα radiation (λCu Kα=1.5418 Å) was collimated by a 2D Kratky collimator, and the data were collected by a 2D Pilatus 100K detector. The scattering vector Q=(4π/λ) sin θ, with 2θ being the scattering angle, was calibrated using silver behenate. Data were collected and azimuthally averaged using the Saxsgui software to yield 1D intensity vs. scattering vector Q, with a Q range from 13 to 18 nm-1. For all measurements the samples were placed inside a stainless-steel cell between two thin replaceable mica sheets and sealed by an O-ring, with a sample volume of 10 μL and a thickness of ˜1 mm.
The TAC loaded mesophase composition comprised: a) a carrier comprising: a1) water in an amount of 16% by weight of the carrier; and a2) MLO in an amount of 84% by weight of the carrier; and b) TAC in an amount of 1% by weight of the composition.

Data set [5] can be described thus: SAXS phase identification of MLO-water mesophases (TIF-Gel). In kind it is physicochemical. The following applies: 5 mg of TOFA and 1 mg of TAC in 100 mg of gel.
Where [6] appears, read: daily rectal instillation 100 μL.

As to `C=CC[C@@H]1/C=C(\C)C[C@H](C)C[C@H](OC)[C@H]2O[C@@](O)(C(=O)C(=O)N3CCCC[C@H]3C(=O)O[C@H](/C(C)=C/[C@@H]3CC[C@@H](O)[C@H](OC)C3)[C@H](C)[C@@H](O)CC1=O)[C@H](C)C[C@@H]2OC` [TAC, tacrolimus], in the data set with T cell transfer colitis [1] (colonic tissues), the “levels of IFN-γ” value is given as “reduced levels” and the “levels of IL-17” value is given as “reduced levels”. In the data set with T cell transfer colitis [1] (daily rectal instillation), the “first signs of colitis, day post T cell transfer” value was about 10 days. Also, in the data set on T cell transfer colitis [1] (setting [6]), the “diarrhoea / disease activity score” value is “signs of diarrhoea” and the weight development entry was “progressive weight loss”. The “relative abundance of T cells” value in the data set on T cell transfer colitis [1] (lamina propria, mesenteric lymph nodes and spleen) is recorded as “reduced the relative abundance of T cells”. Further, the “abundance of FOXP3+ (regulatory) T cells” value with T cell transfer colitis [1] (mouse, in vivo) is “not much effect”. Further, in the data set with T cell transfer colitis [1] (vs empty TIF-Gels), the Th1 cells entry is “reduced”, the Th17 cells result is on record as “reduced”, the colon length entry is on record as “longer colons” and the spleen weight entry is “reduced spleen weight”. In addition, the “endoscopic signs of colitis” value in the data set with T cell transfer colitis [2] is reported as “reduced endoscopic signs of colitis”. In addition, the “long-term stability of drug loaded into TIF-gel (drug content by HPLC)” value in data set [3] was “stable”. Also, the “distribution of drug in the gel matrix” value in data set [4] (Top, Middle and Bottom gel layers, HPLC) was “homogeneously distributed”. Moreover, in data set [4] (embedded in the 3D gel structure), the “drug crystallisation in the gel (WAXS)” value is “do not form crystals”. Besides, the encapsulation efficacy in data set [4] (encapsulated in the TIF-Gel) was found to be 100%. The “effect of drug entrapment on phase identity and thermal behaviour of the carrier gel” value in data set [5] was “did not affect the phase identity and thermal behaviour”.
